Measured values reported in article PMC8800111 (The Journal of Biological Chemistry, 2021).

What was measured:
Assay type in all cases: cell-based
[1] = molecular target: proteins of U3A human fibrosarcoma cells (4462 proteins detected) (Homo sapiens, UniProt Q9NQT5); details: protein EXOSC3; U3A cells
[2] = molecular target: proteins of U3A human fibrosarcoma cells (4462 proteins detected) (Homo sapiens, UniProt P30086); details: protein PEBP1, U3A cells
[3] = molecular target: proteins of U3A human fibrosarcoma cells (4462 proteins detected) (Homo sapiens, UniProt Q16610); details: protein ECM1; U3A, 10 μM, 2 h
[4] = molecular target: proteins of U3A human fibrosarcoma cells (4462 proteins detected) (Homo sapiens, UniProt P46060); details: protein RANGAP1; U3A cells
[5] = molecular target: proteins of U3A human fibrosarcoma cells (4462 proteins detected) (Homo sapiens, UniProt O75886); details: protein STAM2; U3A cells
[6] = molecular target: proteins of U3A human fibrosarcoma cells (4462 proteins detected) (Homo sapiens, UniProt Q13627); details: protein DYRK1A, U3A cells
[7] = molecular target: proteins of U3A human fibrosarcoma cells (4462 proteins detected) (Homo sapiens, UniProt Q9NU23); details: protein LYRM2; U3A, 10 μM, 2 h
proteins of U3A human fibrosarcoma cells (4462 proteins detected) (Homo sapiens, UniProt Q9NU23), sequence (Q9NU23 20-88): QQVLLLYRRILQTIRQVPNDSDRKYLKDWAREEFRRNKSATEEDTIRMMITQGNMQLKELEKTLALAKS

[8] = molecular target: proteins of U3A human fibrosarcoma cells (4462 proteins detected) (Homo sapiens, UniProt O00567); details: protein NOP56; U3A cells
proteins of U3A human fibrosarcoma cells (4462 proteins detected) (Homo sapiens, UniProt O00567), sequence (O00567 whole entry): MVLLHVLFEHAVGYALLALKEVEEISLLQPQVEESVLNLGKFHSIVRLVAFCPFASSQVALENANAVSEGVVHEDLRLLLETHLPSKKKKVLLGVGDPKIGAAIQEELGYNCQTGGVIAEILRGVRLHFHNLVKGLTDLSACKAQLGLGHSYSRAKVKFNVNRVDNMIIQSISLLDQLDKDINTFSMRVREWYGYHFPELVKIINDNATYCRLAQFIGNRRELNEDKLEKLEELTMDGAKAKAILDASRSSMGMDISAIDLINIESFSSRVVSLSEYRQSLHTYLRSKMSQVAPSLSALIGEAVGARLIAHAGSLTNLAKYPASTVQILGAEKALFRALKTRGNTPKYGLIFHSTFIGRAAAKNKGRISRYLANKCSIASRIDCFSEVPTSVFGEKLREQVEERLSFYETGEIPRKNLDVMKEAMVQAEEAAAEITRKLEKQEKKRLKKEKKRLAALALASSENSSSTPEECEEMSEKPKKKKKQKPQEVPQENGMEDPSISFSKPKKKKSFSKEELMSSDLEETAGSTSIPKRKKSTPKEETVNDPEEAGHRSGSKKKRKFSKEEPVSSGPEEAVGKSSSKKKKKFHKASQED

[9] = molecular target: proteins of U3A human fibrosarcoma cells (4462 proteins detected) (Homo sapiens, UniProt Q9UJU6); details: protein DBNL, U3A cells
proteins of U3A human fibrosarcoma cells (4462 proteins detected) (Homo sapiens, UniProt Q9UJU6), sequence (Q9UJU6 whole entry): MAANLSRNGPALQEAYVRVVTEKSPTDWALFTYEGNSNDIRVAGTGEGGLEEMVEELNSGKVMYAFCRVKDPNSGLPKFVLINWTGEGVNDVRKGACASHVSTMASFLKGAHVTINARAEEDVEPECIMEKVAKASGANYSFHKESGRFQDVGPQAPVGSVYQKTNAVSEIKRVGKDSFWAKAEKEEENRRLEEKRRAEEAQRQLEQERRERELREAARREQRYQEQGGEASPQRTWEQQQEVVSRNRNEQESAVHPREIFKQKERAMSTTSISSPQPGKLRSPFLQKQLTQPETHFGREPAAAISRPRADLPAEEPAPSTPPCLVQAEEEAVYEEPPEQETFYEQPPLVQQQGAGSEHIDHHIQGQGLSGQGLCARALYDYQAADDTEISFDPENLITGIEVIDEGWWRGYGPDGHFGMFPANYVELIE

[10] = molecular target: proteins of U3A human fibrosarcoma cells (4462 proteins detected) (Homo sapiens, UniProt O00232); details: protein PSMD12; U3A cells
proteins of U3A human fibrosarcoma cells (4462 proteins detected) (Homo sapiens, UniProt O00232), sequence (O00232 whole entry): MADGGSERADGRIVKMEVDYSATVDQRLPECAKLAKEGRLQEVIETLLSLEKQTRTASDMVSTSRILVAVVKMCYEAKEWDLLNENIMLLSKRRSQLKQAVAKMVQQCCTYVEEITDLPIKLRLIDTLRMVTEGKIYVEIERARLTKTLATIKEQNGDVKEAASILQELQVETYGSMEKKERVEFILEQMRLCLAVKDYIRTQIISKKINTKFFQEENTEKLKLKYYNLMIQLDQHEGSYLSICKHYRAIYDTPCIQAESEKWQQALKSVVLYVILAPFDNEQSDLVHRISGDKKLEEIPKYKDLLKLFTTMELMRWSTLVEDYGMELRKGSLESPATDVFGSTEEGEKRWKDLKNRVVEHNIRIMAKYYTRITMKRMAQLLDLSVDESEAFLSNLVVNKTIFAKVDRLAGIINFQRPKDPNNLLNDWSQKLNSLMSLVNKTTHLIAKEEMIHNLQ

[11] = molecular target: proteins of U3A human fibrosarcoma cells (4462 proteins detected) (Homo sapiens, UniProt Q92688); details: protein ANP32B, U3A cells
proteins of U3A human fibrosarcoma cells (4462 proteins detected) (Homo sapiens, UniProt Q92688), sequence (Q92688 whole entry): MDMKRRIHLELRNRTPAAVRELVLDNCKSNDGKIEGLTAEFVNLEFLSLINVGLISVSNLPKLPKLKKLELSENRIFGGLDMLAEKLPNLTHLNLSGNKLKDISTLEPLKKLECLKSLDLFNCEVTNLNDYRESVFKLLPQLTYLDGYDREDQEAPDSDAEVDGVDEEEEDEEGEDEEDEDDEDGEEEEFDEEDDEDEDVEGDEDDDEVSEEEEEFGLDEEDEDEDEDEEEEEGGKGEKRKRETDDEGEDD

[12] = molecular target: proteins of U3A human fibrosarcoma cells (4462 proteins detected) (Homo sapiens, UniProt Q9NYV4); details: protein CDK12; U3A cells
[13] = molecular target: proteins of U3A human fibrosarcoma cells (4462 proteins detected) (Homo sapiens, UniProt Q9Y316); details: protein MEMO1, U3A cells
[14] = molecular target: proteins of U3A human fibrosarcoma cells (4462 proteins detected) (Homo sapiens, UniProt P08174); details: protein CD55; U3A cells
[15] = molecular target: proteins of U3A human fibrosarcoma cells (4462 proteins detected) (Homo sapiens, UniProt Q13492); details: protein PICALM; U3A cells
[16] = molecular target: proteins of U3A human fibrosarcoma cells (4462 proteins detected) (Homo sapiens, UniProt Q9HAS0); details: protein C17orf75; U3A cells
proteins of U3A human fibrosarcoma cells (4462 proteins detected) (Homo sapiens, UniProt Q9HAS0), sequence (Q9HAS0 whole entry): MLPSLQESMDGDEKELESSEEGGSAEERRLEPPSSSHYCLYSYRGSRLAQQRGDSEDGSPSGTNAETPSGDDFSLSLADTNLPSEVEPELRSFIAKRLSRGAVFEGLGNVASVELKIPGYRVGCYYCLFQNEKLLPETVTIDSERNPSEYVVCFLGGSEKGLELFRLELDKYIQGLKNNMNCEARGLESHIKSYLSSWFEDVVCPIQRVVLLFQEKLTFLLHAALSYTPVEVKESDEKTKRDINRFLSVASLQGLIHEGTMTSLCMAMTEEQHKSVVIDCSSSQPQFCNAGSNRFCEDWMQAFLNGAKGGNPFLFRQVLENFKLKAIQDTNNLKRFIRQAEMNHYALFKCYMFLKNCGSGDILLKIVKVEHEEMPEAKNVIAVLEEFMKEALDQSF

[17] = molecular target: proteins of U3A human fibrosarcoma cells (4462 proteins detected) (Homo sapiens, UniProt Q9Y5N6); details: protein ORC6; U3A cells
proteins of U3A human fibrosarcoma cells (4462 proteins detected) (Homo sapiens, UniProt Q9Y5N6), sequence (Q9Y5N6 whole entry): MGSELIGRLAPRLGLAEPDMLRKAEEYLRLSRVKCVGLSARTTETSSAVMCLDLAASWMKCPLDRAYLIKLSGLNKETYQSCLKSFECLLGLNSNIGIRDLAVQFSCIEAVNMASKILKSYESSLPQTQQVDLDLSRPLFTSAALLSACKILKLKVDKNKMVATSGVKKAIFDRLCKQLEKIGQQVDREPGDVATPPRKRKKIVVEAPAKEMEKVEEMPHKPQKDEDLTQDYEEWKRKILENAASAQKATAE

[18] = molecular target: proteins of U3A human fibrosarcoma cells (4462 proteins detected) (Homo sapiens, UniProt P52943); details: protein CRIP2, U3A cells
proteins of U3A human fibrosarcoma cells (4462 proteins detected) (Homo sapiens, UniProt P52943), sequence (P52943 whole entry): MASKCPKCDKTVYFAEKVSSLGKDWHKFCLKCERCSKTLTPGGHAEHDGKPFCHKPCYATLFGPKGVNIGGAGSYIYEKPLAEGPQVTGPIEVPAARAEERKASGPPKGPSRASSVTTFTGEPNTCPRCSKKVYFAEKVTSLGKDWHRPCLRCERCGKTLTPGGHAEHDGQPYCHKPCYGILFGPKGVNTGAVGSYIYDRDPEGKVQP

[19] = molecular target: proteins of U3A human fibrosarcoma cells (4462 proteins detected) (Homo sapiens, UniProt Q9Y3C8); details: protein UFC1; U3A cells
proteins of U3A human fibrosarcoma cells (4462 proteins detected) (Homo sapiens, UniProt Q9Y3C8), sequence (Q9Y3C8 whole entry): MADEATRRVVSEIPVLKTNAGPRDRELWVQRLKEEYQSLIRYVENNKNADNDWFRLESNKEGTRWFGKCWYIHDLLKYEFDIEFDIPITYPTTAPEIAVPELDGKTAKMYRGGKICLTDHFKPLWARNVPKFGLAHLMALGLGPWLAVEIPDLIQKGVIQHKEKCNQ

[20] = molecular target: proteins of U3A human fibrosarcoma cells (4462 proteins detected) (Homo sapiens, UniProt Q5JSH3); details: protein WDR44, U3A cells
[21] = molecular target: proteins of U3A human fibrosarcoma cells (4462 proteins detected) (Homo sapiens, UniProt Q9BVS5); details: protein TRMT61B; soluble abundance after heat, U3A cells
[22] = molecular target: proteins of U3A human fibrosarcoma cells (4462 proteins detected) (Homo sapiens, UniProt Q9NRZ9); details: protein HELLS; soluble abundance after heat, U3A cells
[23] = molecular target: proteins of U3A human fibrosarcoma cells (4462 proteins detected) (Homo sapiens, UniProt Q4VC31); details: protein CCDC58; U3A cells
proteins of U3A human fibrosarcoma cells (4462 proteins detected) (Homo sapiens, UniProt Q4VC31), sequence (Q4VC31 whole entry): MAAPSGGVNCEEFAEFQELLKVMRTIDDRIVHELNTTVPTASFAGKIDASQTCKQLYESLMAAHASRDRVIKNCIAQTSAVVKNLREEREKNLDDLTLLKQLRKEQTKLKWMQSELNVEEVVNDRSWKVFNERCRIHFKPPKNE

[24] = molecular target: proteins of U3A human fibrosarcoma cells (4462 proteins detected) (Homo sapiens, UniProt Q9H9F9); details: protein ACTR5; U3A cells
proteins of U3A human fibrosarcoma cells (4462 proteins detected) (Homo sapiens, UniProt Q9H9F9), sequence (Q9H9F9 whole entry): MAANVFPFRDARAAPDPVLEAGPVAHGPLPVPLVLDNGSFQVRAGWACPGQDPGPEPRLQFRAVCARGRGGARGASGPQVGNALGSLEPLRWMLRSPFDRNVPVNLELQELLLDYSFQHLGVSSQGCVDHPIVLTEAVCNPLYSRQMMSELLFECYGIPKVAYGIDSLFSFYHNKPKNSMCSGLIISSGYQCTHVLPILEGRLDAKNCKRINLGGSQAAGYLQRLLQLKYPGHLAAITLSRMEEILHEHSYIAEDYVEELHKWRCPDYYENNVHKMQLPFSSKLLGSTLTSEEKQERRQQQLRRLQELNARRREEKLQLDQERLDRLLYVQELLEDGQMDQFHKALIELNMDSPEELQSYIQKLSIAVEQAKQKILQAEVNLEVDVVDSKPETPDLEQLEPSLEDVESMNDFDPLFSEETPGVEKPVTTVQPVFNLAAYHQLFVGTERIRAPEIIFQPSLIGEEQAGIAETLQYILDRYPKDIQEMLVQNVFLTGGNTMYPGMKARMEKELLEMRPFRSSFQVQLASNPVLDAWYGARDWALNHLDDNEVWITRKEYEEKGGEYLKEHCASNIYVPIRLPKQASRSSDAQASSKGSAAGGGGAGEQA

[25] = molecular target: proteins of U3A human fibrosarcoma cells (4462 proteins detected) (Homo sapiens, UniProt Q9BWU0); details: protein SLC4A1AP, U3A cells
[26] = molecular target: proteins of U3A human fibrosarcoma cells (4462 proteins detected) (Homo sapiens, UniProt Q16401); details: protein PSMD5; soluble abundance after heat, U3A cells
[27] = molecular target: proteins of U3A human fibrosarcoma cells (4462 proteins detected) (Homo sapiens, UniProt Q9NXV2); details: protein KCTD5, U3A cells
proteins of U3A human fibrosarcoma cells (4462 proteins detected) (Homo sapiens, UniProt Q9NXV2), sequence (Q9NXV2 whole entry): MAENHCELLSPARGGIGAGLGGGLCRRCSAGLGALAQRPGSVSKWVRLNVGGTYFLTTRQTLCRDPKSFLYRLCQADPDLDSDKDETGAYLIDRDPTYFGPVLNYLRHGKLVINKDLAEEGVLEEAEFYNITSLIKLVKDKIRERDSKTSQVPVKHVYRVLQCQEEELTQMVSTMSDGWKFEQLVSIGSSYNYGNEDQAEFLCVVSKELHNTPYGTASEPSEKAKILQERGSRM

[28] = molecular target: proteins of U3A human fibrosarcoma cells (4462 proteins detected) (Homo sapiens, UniProt P29353); details: protein SHC1; U3A cells
proteins of U3A human fibrosarcoma cells (4462 proteins detected) (Homo sapiens, UniProt P29353), sequence (P29353 whole entry): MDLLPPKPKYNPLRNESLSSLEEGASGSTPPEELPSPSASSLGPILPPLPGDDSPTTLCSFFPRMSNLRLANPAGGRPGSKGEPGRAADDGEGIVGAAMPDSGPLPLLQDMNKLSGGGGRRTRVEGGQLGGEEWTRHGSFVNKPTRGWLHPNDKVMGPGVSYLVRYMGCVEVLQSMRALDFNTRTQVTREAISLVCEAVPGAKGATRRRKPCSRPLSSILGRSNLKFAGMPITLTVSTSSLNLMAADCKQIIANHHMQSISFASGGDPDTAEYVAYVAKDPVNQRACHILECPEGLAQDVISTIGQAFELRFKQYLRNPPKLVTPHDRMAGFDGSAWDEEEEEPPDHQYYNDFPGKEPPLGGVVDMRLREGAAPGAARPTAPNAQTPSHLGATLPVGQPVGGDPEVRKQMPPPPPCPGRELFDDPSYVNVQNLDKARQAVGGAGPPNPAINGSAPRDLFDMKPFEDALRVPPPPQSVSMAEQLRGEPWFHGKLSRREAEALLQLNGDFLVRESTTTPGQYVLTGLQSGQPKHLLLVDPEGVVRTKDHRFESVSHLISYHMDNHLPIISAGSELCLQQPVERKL

[29] = molecular target: proteins of U3A human fibrosarcoma cells (4462 proteins detected) (Homo sapiens, UniProt Q96P48); details: protein ARAP1; soluble abundance after heat, U3A cells
[30] = molecular target: proteins of U3A human fibrosarcoma cells (4462 proteins detected) (Homo sapiens, UniProt Q9BVW5); details: protein TIPIN, U3A cells

proteins of U3A human fibrosarcoma cells (4462 proteins detected) (Homo sapiens, UniProt Q9NQT5), sequence (Q9NQT5 whole entry): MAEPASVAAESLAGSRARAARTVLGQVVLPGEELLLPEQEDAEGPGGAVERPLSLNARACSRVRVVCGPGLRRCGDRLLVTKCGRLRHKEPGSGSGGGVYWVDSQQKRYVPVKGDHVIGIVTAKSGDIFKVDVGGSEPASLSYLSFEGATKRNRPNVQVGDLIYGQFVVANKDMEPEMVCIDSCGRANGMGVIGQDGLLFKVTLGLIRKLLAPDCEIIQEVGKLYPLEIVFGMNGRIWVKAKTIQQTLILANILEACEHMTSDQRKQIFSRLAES
proteins of U3A human fibrosarcoma cells (4462 proteins detected) (Homo sapiens, UniProt P30086), sequence (P30086 whole entry): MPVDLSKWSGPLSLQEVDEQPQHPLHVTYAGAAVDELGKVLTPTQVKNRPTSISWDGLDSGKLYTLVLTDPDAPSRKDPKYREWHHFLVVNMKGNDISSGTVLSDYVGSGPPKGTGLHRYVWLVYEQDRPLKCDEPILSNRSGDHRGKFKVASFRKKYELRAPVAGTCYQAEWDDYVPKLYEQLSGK

## CCc1nc(N)nc(N)c1-c1ccc(Cl)cc1 [pyrimethamine]
[1]
  Log2 (PYR/DMSO): 0.18
[2]
  Log2 (PYR/DMSO): -0.04
[3]
  Log2 (PYR/DMSO), ECM1: -0.14
[4]
  Log2 (PYR/DMSO): 0.18
[5]
  Log2 (PYR/DMSO): 0.19
[6]
  Log2 (PYR/DMSO): -0.05
[7]
  Log2 (PYR/DMSO), LYRM2: 0.27
[8]
  Log2 (PYR/DMSO): 0.21
[9]
  Log2 (PYR/DMSO): -0.04
[10]
  Log2 (PYR/DMSO): 0.18
[11]
  Log2 (PYR/DMSO): -0.03
[12]
  Log2 (PYR/DMSO): 0.20
[13]
  Log2 (PYR/DMSO): -0.03
[14]
  Log2 (PYR/DMSO): 0.20
[15]
  Log2 (PYR/DMSO): 0.17
[16]
  Log2 (PYR/DMSO): 0.18
[17]
  Log2 (PYR/DMSO): 0.18
[18]
  Log2 (PYR/DMSO): -0.04
[19]
  Log2 (PYR/DMSO): 0.16
[20]
  Log2 (PYR/DMSO): -0.05
[21]
  Log2 (PYR/DMSO): 0.13
[22]
  Log2 (PYR/DMSO): 0.14
[23]
  Log2 (PYR/DMSO): 0.20
[24]
  Log2 (PYR/DMSO): 0.20
[25]
  Log2 (PYR/DMSO): -0.04
[26]
  Log2 (PYR/DMSO): 0.14
[27]
  Log2 (PYR/DMSO): -0.04
[28]
  Log2 (PYR/DMSO): 0.19
[29]
  Log2 (PYR/DMSO): 0.14
[30]
  Log2 (PYR/DMSO): -0.03
